Results on 41 molecules are retold here after US7371773B2, “Breast cancer resistance protein (BCRP) inhibitor” (Kabushiki Kaisha Yakult Honsha, priority 2003, dated 2008).

The EC50 is the concentration at which the effect is half-maximal.

Values after ≈ are worked out from the molar mass of the structure shown.

The first assay concerns A549/SN-38-4 cell line. Kind of assay: Overcoming anticancer drug resistance of A549/SN-38-4 cell line. The assay is classed as cell-based, human.
Settings: not given
The method, then: The effect of a diphenylacrylonitrile derivative on BCRP-mediated anticancer drug resistance was studied by use of the human lung cancer A549/SN-38-4 cell line, which had acquired anticancer drug resistance through BCRP expression. The human lung cancer A549 cell line or the A549/SN-38-4 cell line was suspended in 10% FBS/Ham's F-12, and the resultant suspension was inoculated into a 96-well microplate, followed by culturing at 5% CO2 and 37° C. overnight (2×10^3 cells/50 μL/well). Thereafter, a 10% FBS/Ham's F-12 solution (25 μL) containing a diphenylacrylonitrile derivative and SN-38 or mitoxantrone was added to each of the wells, followed by culturing at 5% CO2 and 37° C. for 48 hours. After completion of culturing, the number of viable cells was counted by use of TetraColor ONE according to the attached instruction manual. […] The greater the relative resistance value, the higher the level of acquired resistance.
On to “(Z)-2-(3,4-dimethoxyphenyl)-3-[4-(6-phospho-β-D-glucopyranosyl)-phenyl]-acrylonitrile [Compound 73]”, for which the “Resistance overcoming effect EC50” value amounted to 1.0 µg/mL.

In the case of “(Z)-2-(3,4-dimethoxyphenyl)-3-(4-β-D-glucopyranosyl-phenyl)-acrylonitrile [Compound 44]”, the “Resistance overcoming effect EC50” value came out at 0.024 µg/mL. As to `COc1ccc(/C(C#N)=C/c2ccc(OP(=O)(O)O)c(OC)c2)cc1OC` [Compound 71, mono-{4-[(Z)-2-cyano-2-(3,4-dimethoxy-phenyl)-vinyl]-2-methoxy-phenyl} phosphate], the “Resistance overcoming effect EC50” value was found to be 0.29 µg/mL.

Regarding `COc1ccc(/C(C#N)=C/c2ccc(OP(=O)(O)O)cc2)cc1OC` [Compound 70, mono-{4-[(Z)-2-cyano-2-(3,4-dimethoxy-phenyl)-vinyl]-phenyl} phosphate], the “Resistance overcoming effect EC50” value amounted to 0.24 µg/mL.

The same assay, now with this note: Homo sapiens, A549; SN-38 resistance, concentration for 50% reduction of relative resistance value, 48 hours; read-out: Resistance overcoming effect EC50.
Take `COc1ccc(/C(C#N)=C/c2cccc(F)c2O)cc1OC` [Compound 55, (Z)-2-(3,4-dimethoxy-phenyl)-3-(3-fluoro-2-hydroxy-phenyl)-acrylonitrile]: the EC50 turned out to be 0.015 µg/mL (≈ 0.0501 µM). As for `COc1ccc(/C(C#N)=C/c2ccc(F)c([N+](=O)[O-])c2)cc1OC` [Compound 77, (Z)-2-(3,4-dimethoxy-phenyl)-3-(4-fluoro-3-nitro-phenyl)-acrylonitrile], the EC50 was found to be 0.3 µg/mL (≈ 0.914 µM). Turning to `COc1ccc(/C(C#N)=C/c2ccc(OC(=O)CCC(=O)Oc3ccc(/C=C(\C#N)c4ccc(OC)c(OC)c4)cc3)cc2)cc1OC` [Compound 43, bis-{4-[(Z)-2-cyano-2-(3,4-dimethoxy-phenyl)-vinyl]-phenyl} succinate], the EC50 was 0.12 µg/mL. Consider `CCOc1cc(/C(C#N)=C/c2ccc(OC)c(OC)c2)ccc1OC(C)=O` [Compound 63, 4-[(Z)-1-cyano-2-(3,4-dimethoxy-phenyl)-vinyl]-2-ethoxy-phenyl acetate], for which the EC50 came to 0.024 µg/mL.

For the molecule `COCCOCOc1ccc(/C(C#N)=C/c2ccc(OC)c(OC)c2)cc1` [Compound 47, (Z)-3-(3,4-dimethoxy-phenyl)-2-[4-(2-methoxy-ethoxymethoxy)-phenyl]-acrylonitrile], the concentration for a half-maximal effect (EC50) was 0.053 µg/mL (≈ 0.143 µM). In the case of `COc1ccc(/C=C(\C#N)c2ccc(OC(C)=O)cc2)cc1OC` [Compound 61, 4-[(Z)-1-cyano-2-(3,4-dimethoxy-phenyl)-vinyl]phenyl acetate], the EC50 was 0.024 µg/mL. On to `CCOC(=O)COc1ccc(/C=C(\C#N)c2ccc(OC)c(OC)c2)cc1` [Compound 35, ethyl [4-[(Z)-2-cyano-2-(3,4-dimethoxy-phenyl)-vinyl]-phenoxy]-acetate], for which the concentration for a half-maximal effect (EC50) turned out to be 0.37 µg/mL (≈ 1.01 µM). For `COc1ccc(/C=C(\C#N)c2ccc(OC(=O)CCCCCCCBr)cc2)cc1OC` [Compound 67, 4-[(Z)-1-cyano-2-(3,4-dimethoxy-phenyl)-vinyl]-phenyl 8-bromo-octanoate], the half-maximal effective concentration (EC50) was found to be 0.065 µg/mL (≈ 0.134 µM).

With `COc1ccc(/C(C#N)=C\c2ccc(O)cc2)cc1OC` [Compound 50, (E)-2-(3,4-dimethoxy-phenyl)-3-(4-hydroxy-phenyl)-acrylonitrile], the EC50 is 0.094 µg/mL (≈ 0.334 µM). For `CCOc1ccc(/C=C(\C#N)c2ccc(OC)c(OC)c2)cc1[N+](=O)[O-]` [Compound 40, (Z)-2-(3,4-dimethoxy-phenyl)-3-(4-ethoxy-3-nitro-phenyl)-acrylonitrile], the EC50 is 0.15 µg/mL (≈ 0.423 µM).

Take `COc1ccc(/C(C#N)=C/c2ccc(F)c(F)c2)cc1OC` [Compound 25, (Z)-3-(3,4-difluoro-phenyl)-2-(3,4-dimethoxy-phenyl)-acrylonitrile]: the EC50 was less than 0.005 µg/mL. The same measure, in the same setting: the figure for `COc1ccc(/C(C#N)=C/c2cc3c(cc2[N+](=O)[O-])OCO3)cc1OC` [Compound 46, (Z)-2-(3,4-dimethoxy-phenyl)-3-(6-nitro-benzo[1,3]dioxol-5-yl)-acrylonitrile] is 0.58 µg/mL (≈ 1.64 µM); for `COc1ccc(/C(C#N)=C/c2ccccc2F)cc1OC` [Compound 20, (Z)-2-(3,4-dimethoxy-phenyl)-3-(2-fluoro-phenyl)-acrylonitrile] it is 0.053 µg/mL (≈ 0.187 µM); for `CCOC(=O)CCC(=O)Oc1ccc(/C=C(\C#N)c2ccc(OC)c(OC)c2)cc1` [Compound 42, 4-[(Z)-2-cyano-2-(3,4-dimethoxy-phenyl)-vinyl]-phenyl ethyl succinate] it is 0.038 µg/mL. Same read-out and setting: the figure for `COc1ccc(/C(C#N)=C/c2cc(F)c(F)cc2F)cc1OC` [Compound 30, (Z)-2-(3,4-dimethoxy-phenyl)-3-(2,4,5-trifluoro-phenyl)-acrylonitrile] is 0.041 µg/mL (≈ 0.128 µM); for `COc1ccc(/C(C#N)=C/c2cc(F)cc(F)c2)cc1OC` [Compound 26, (Z)-3-(3,5-difluoro-phenyl)-2-(3,4-dimethoxy-phenyl)-acrylonitrile] it is less than 0.005 µg/mL; for `COc1ccc(/C(C#N)=C/c2cccc(F)c2F)cc1OC` [Compound 22, (Z)-3-(2,3-difluoro-phenyl)-2-(3,4-dimethoxy-phenyl)-acrylonitrile] it is 0.022 µg/mL (≈ 0.073 µM). As to `COc1ccc(/C(C#N)=C/c2ccc(Cl)c([N+](=O)[O-])c2)cc1OC` [Compound 38, (Z)-3-(4-chloro-3-nitro-phenyl)-2-(3,4-dimethoxy-phenyl)-acrylonitrile], the EC50 was 0.037 µg/mL (≈ 0.107 µM). The same measure, in the same setting: under `COc1ccc(/C(C#N)=C/c2ccc(C=O)cc2)cc1OC` [Compound 62, (Z)-2-(3,4-dimethoxy-phenyl)-3-(4-formyl-phenyl)-acrylonitrile] stands 0.11 µg/mL (≈ 0.375 µM); under `COc1ccc(/C(C#N)=C/c2cc([N+](=O)[O-])ccc2F)cc1OC` [Compound 39, (Z)-2-(3,4-dimethoxy-phenyl)-3-(2-fluoro-5-nitro-phenyl)-acrylonitrile], 0.027 µg/mL (≈ 0.0822 µM); under `COc1ccc(/C(C#N)=C/c2cc(O)c(OC)c(OC)c2)cc1OC` [Compound 78, (Z)-2-(3,4-dimethoxy-phenyl)-3-(3-hydroxy-4,5-dimethoxy-phenyl)-acrylonitrile], 0.053 µg/mL (≈ 0.155 µM).

On to `COc1ccc(/C(C#N)=C/c2ccc(C#N)cc2)cc1OC` [Compound 21, 4-[(Z)-2-cyano-2-(3,4-dimethoxy-phenyl)-vinyl]-benzonitrile], for which the EC50 is 0.022 µg/mL (≈ 0.0758 µM).

As for `COc1ccc(/C(C#N)=C/c2ccc(O)c([N+](=O)[O-])c2)cc1OC` [Compound 45, (Z)-2-(3,4-dimethoxy-phenyl)-3-(4-hydroxy-3-nitro-phenyl)-acrylonitrile], the EC50 is 0.13 µg/mL (≈ 0.398 µM). The same measure, in the same setting: the figure for `COc1ccc(/C(C#N)=C/c2ccc([N+](=O)[O-])c(O)c2)cc1OC` [Compound 53, (Z)-2-(3,4-dimethoxy-phenyl)-3-(3-hydroxy-4-nitro-phenyl)-acrylonitrile] is 0.048 µg/mL (≈ 0.147 µM); for `COc1ccc(/C=C(\C#N)c2ccc(OC(C)=O)c(F)c2)cc1OC` [Compound 64, 4-[(Z)-1-cyano-2-(3,4-dimethoxy-phenyl)-vinyl]-2-fluoro-phenyl acetate] it is 0.01 µg/mL; for `COc1ccc(/C(C#N)=C/c2cccc([N+](=O)[O-])c2)cc1OC` [Compound 33, (Z)-2-(3,4-dimethoxy-phenyl)-3-(3-nitro-phenyl)-acrylonitrile] it is 0.019 µg/mL (≈ 0.0612 µM). The same measure, in the same setting: the figure for `COc1ccc(/C(C#N)=C/c2cc(F)c(F)c(F)c2)cc1OC` [Compound 31, (Z)-2-(3,4-dimethoxy-phenyl)-3-(3,4,5-trifluoro-phenyl)-acrylonitrile] is 0.015 µg/mL (≈ 0.047 µM). With `COC(=O)CCC(=O)Oc1ccc(/C=C(\C#N)c2ccc(OC)c(OC)c2)cc1` [Compound 41, 4-[(Z)-2-cyano-2-(3,4-dimethoxy-phenyl)-vinyl]-phenyl methyl succinate], the EC50 was determined as 0.041 µg/mL. The same measure, in the same setting: the figure for `COCCOCOc1ccc(/C=C(\C#N)c2ccc(OC)c(OC)c2)cc1F` [Compound 58, (Z)-2-(3,4-dimethoxy-phenyl)-3-[3-fluoro-4-(2-methoxy-ethoxymethoxy)-phenyl]-acrylonitrile] is 0.033 µg/mL (≈ 0.0852 µM); for `COc1ccc(/C(C#N)=C/c2ccc(F)c(F)c2F)cc1OC` [Compound 27, (Z)-2-(3,4-dimethoxy-phenyl)-3-(2,3,4-trifluoro-phenyl)-acrylonitrile] it is 0.047 µg/mL (≈ 0.147 µM). Still for that read-out and setting: the figure for `COc1ccc(/C(C#N)=C/c2ccc(N)cc2)cc1OC` [Compound 34, (Z)-3-(4-amino-phenyl)-2-(3,4-dimethoxy-phenyl)-acrylonitrile] is 0.079 µg/mL (≈ 0.282 µM). In the case of `COc1ccc(/C(C#N)=C/c2ccc(F)cc2F)cc1OC` [Compound 23, (Z)-3-(2,4-difluoro-phenyl)-2-(3,4-dimethoxy-phenyl)-acrylonitrile], the EC50 was 0.048 µg/mL (≈ 0.159 µM). Consider `COc1ccc(/C=C(\C#N)c2ccc(OC)c(OC)c2)cc1OC` [Compound 56, (Z)-2,3-bis-(3,4-dimethoxy-phenyl)-acrylonitrile], for which the EC50 turned out to be 0.016 µg/mL (≈ 0.0492 µM).

Staying with this assay, now noted: SN-38 resistance, concentration for 50% reduction of relative resistance value, 48 hours.
Turning to “(Z)-2-(3,4-dimethoxyphenyl)-3-(4-β-maltosyl-phenyl)-acrylonitrile [Compound 51]”, the “Resistance overcoming effect EC50” value is 0.045 µg/mL. Same read-out and setting: the figure for “(Z)-2-(3,4-dimethoxyphenyl)-3-[4-(6-phospho-β-D-glucopyranosyl)-phenyl]-acrylonitrile sodium salt [Compound 75]” is more than 1.0 µg/mL. The same measure, in the same setting: the figure for `CCN(CC)CC.COc1ccc(/C(C#N)=C/c2ccc(OS(=O)(=O)O)cc2)cc1OC` [Compound 74, sulphoric acid mono-{4-[(Z)-2-cyano-2-(3,4-dimethoxy-phenyl)-vinyl]-phenyl} ester triethylammonium salt] is more than 1.0 µg/mL; for “(Z)-2-(3,4-dimethoxyphenyl)-3-(4-β-maltotriosyl-phenyl)-acrylonitrile [Compound 54]” it is 0.26 µg/mL.
